Consider four molecules from article PMC10684765, “Inhibition of rat locus coeruleus neurons by prostaglandin E2 EP3 receptors: pharmacological characterization ex vivo” (Frontiers in Pharmacology, 2023).

pEC50: −log10 of the molar value. Where two headings read alike, the source gives them in different places.

One may read the pEC50 as the negative decadic logarithm of the EC50, by convention in mol/L.

For assay [1], the target named is T1, EP3 receptor (Rattus norvegicus, UniProt P34980).
T1 construct: gene Ptger3; native receptor in locus coeruleus neurons, brain slices
T1 sequence (P34980 1-365): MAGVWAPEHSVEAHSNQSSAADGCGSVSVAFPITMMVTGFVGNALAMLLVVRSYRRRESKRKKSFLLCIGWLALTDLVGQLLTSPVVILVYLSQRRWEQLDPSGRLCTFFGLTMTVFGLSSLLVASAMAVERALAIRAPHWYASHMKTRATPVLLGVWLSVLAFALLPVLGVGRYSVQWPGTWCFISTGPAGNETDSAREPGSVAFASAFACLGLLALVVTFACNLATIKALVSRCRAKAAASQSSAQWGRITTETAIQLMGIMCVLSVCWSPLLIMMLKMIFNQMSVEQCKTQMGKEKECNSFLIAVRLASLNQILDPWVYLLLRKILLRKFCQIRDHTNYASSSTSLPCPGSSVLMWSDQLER
Nature of the assay: inhibition of LC neuron firing, single-unit extracellular recording; shifted by EP3 antagonist L-798, […].

Assay [2] has as its target T1, EP3 receptor. The assay is described as follows: antagonism of sulprostone concentration-effect curves, single-unit recording in rat LC slices (Schild-derived fit).

Take `CCCCC[C@H](O)/C=C/[C@H]1[C@H](O)CC(=O)[C@@H]1C/C=C\CCCC(=O)O` [prostaglandin E2]: the pEC50 at EP3 receptor [1] was 6.96. For the molecule `CS(=O)(=O)NC(=O)CCC/C=C\C[C@H]1C(=O)C[C@@H](O)[C@@H]1/C=C/[C@@H](O)COc1ccccc1` [sulprostone], at EP3 receptor [1] (read-out: (EC50)), the pEC50 was 7.83. On the same count and under the same terms, with `CCCCC(C)(O)C/C=C/[C@H]1[C@H](O)CC(=O)[C@@H]1CCCCCCC(=O)O` (relative stereo) [misoprostol free acid] the figure was 7.29.

On EP3 receptor [2], `COc1ccc(Br)cc1S(=O)(=O)NC(=O)/C=C/c1ccccc1Cc1ccc2ccccc2c1` [L-798,106] returned a Kb of 5.77 ± 0.10 pKB.
